Like-named read-outs stand apart in the source and are kept apart here.

One may read the EC50 as the concentration needed to bring the measured effect to its halfway point. What is called CC50 is the concentration at which the toxic effect on the cells reaches its halfway point. A lower CC50 goes with greater toxicity to the cells.

The subject of one data set is HBV. The data set can be described thus: anti HBV activity, HepG2.117 cell line, intracellular HBV DNA by realtime PCR. Type of data set: cell-based. Particulars: HepG2.117 cell line (Tet-off), 3 days of treatment, intracellular HBV DNA quantified by realtime PCR, read-out: HBV-AVE-HepG2.117 EC50. The method, boiled down: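 HepG2.117 cells, a Tet-off line that replicates HBV without doxycycline, were induced and then treated in duplicate with serially diluted compound. After 3 days, intracellular HBV DNA was quantified by real-time PCR with an HBV-specific primer set and probe.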

A short description of data set [1]: Cytotoxicity in HepG2 cells, Resazurin assay. As to conditions: human, HepG2 cells, TOX-HepG2-4 d CC50 (μM), HepG2 cells incubated for 4 days, viability by Resazurin assay. Background: The colour change of resazurin is a common sign of viable cells or microbes.
Where [2] appears, read: Hepatitis B virus, HepG2.117, 72 h.

As for `CC(C)[C@@H]1COc2c(ccc(F)c2C(=O)Nc2ccc(F)c(C#N)c2)S(=O)(=O)N1` [Compound 49, (3R)—N-(3-cyano-4-fluoro-phenyl)-7-fluoro-3-isopropyl-1,1-dioxo-3,4-dihydro-2H-5,1λ^6,2-benzoxathiazepine-6-carboxamide], the concentration giving a half-maximal response (EC50) in the data set on HBV (setting [2]) turned out to be 0.31 µM. In addition, the CC50 at 4 days in data set [1] is above 25 µM.

For the molecule `Cn1cc2c(c1C(=O)Nc1ccc(F)c(F)c1)OC[C@H](C(O)C1CC1)NS2(=O)=O` (stereo partly drawn) [Compound 105a, (3R)-3-[cyclopropyl(hydroxy)methyl]-N-(3,4-difluorophenyl)-7-methyl-1,1-dioxo-3,4-dihydro-2H-pyrrolo[3,4-b][1,4,5]oxathiazepine-6-carboxamide], the EC50 in the data set on HBV (setting [2]) was determined as 0.007 µM. In addition, the CC50 at 4 days in data set [1] is above 25 µM.

On to `Cn1cc2c(c1C(=O)Nc1cc(F)c(F)c(F)c1)OC[C@H](C(C)(C)O)NS2(=O)=O` [Compound 147, (3R)-3-(1-hydroxy-1-methyl-ethyl)-7-methyl-1,1-dioxo-N-(3,4,5-trifluorophenyl)-3,4-dihydro-2H-pyrrolo[3,4-b][1,4,5]oxathiazepine-6-carboxamide], for which the concentration for a half-maximal effect (EC50) in the data set with HBV (setting [2]) worked out at 0.013 µM. Besides, in data set [1], the CC50 at 4 days is above 25 µM.

Regarding `COCC1(CO)CCc2c(cn(C)c2C(=O)Nc2ccc(F)c(F)c2)S(=O)(=O)N1` (stereo not shown) [Compound 202, N-(3,4-difluorophenyl)-3-(hydroxymethyl)-3-(methoxymethyl)-7-methyl-1,1-dioxo-4,5-dihydro-2H-pyrrolo[3,4-f]thiazepine-6-carboxamide], in the data set with HBV (setting [2]), the 50% effective concentration (EC50) came out at 0.025 µM. For the same molecule, the half-maximal cytotoxic concentration (CC50) at 4 days in data set [1] was above 25 µM.

In the case of `C[C@H]1CCc2c(cn(C)c2C(=O)Nc2ccnc(Br)c2)S(=O)(=O)N1` (single isomer, unassigned) [Compound 57, (3*S)—N-(2-bromo-4-pyridyl)-3,7-dimethyl-1,1-dioxo-2,3,4,5-tetrahydropyrrolo[3,4-f]thiazepine-6-carboxamide], the concentration giving a half-maximal response (EC50) in the data set with HBV (setting [2]) came to 0.013 µM. In addition, in data set [1], the CC50 at 4 days was above 25 µM.

Regarding `Cc1cc(NC(=O)c2c3c(cn2C)S(=O)(=O)N[C@@H](C)CC3)ccc1F` (single isomer, unassigned) [Compound 41, (3*S)—N-(4-fluoro-3-methyl-phenyl)-3,7-dimethyl-1,1-dioxo-2,3,4,5-tetrahydropyrrolo[3,4-f]thiazepine-6-carboxamide], in the data set with HBV (setting [2]), the concentration giving a half-maximal response (EC50) is 0.008 µM. This molecule also yielded a cytotoxic concentration (CC50) at 4 days in data set [1] above 25 µM.

Turning to `C[C@@H](O)[C@H]1COc2c(cn(C)c2C(=O)Nc2ccc(F)c(F)c2)S(=O)(=O)N1` [Compound 33, (3R)—N-(3,4-difluorophenyl)-3-[(1R)-1-hydroxyethyl]-7-methyl-1,1-dioxo-3,4-dihydro-2H-pyrrolo[3,4-b][1,4,5]oxathiazepine-6-carboxamide], the concentration giving a half-maximal response (EC50) with HBV (setting [2]) was 0.053 µM. The molecule further displayed a CC50 at 4 days in data set [1] above 25 µM.

Turning to `Cn1cc2c(c1C(=O)Nc1ccc(F)c(F)c1)CCC1(COC1)NS2(=O)=O` [Compound 131, N-(3,4-difluorophenyl)-7-methyl-1,1-dioxo-spiro[4,5-dihydro-2H-pyrrolo[3,4-f]thiazepine-3,3′-oxetane]-6-carboxamide], the concentration giving a half-maximal response (EC50) with HBV (setting [2]) was 0.023 µM. The CC50 at 4 days in data set [1] is above 25 µM.

Regarding `COC(C)(C)C1COc2c(cn(C)c2C(=O)Nc2ccc(F)c(F)c2)S(=O)(=O)N1` (stereo not shown) [Compound 80, N-(3,4-difluorophenyl)-3-(1-methoxy-1-methyl-ethyl)-7-methyl-1,1-dioxo-3,4-dihydro-2H-pyrrolo[3,4-b][1,4,5]oxathiazepine-6-carboxamide], the EC50 with HBV (setting [2]) was determined as 0.018 µM. For the same molecule, the CC50 at 4 days in data set [1] is above 25 µM.

For the molecule `C[C@H](O)[C@H]1COc2c(cn(C)c2C(=O)Nc2ccnc(Br)c2)S(=O)(=O)N1` [Compound 66, (3R)—N-(2-bromo-4-pyridyl)-3-[(1S)-1-hydroxyethyl]-7-methyl-1,1-dioxo-3,4-dihydro-2H-pyrrolo[3,4-b][1,4,5]oxathiazepine-6-carboxamide], the EC50 in the data set with HBV (setting [2]) was found to be 0.047 µM. The CC50 at 4 days in data set [1] is above 25 µM.

In the case of `Cn1cc2c(c1C(=O)Nc1ccc(F)c(F)c1)OC[C@@H]([C@@H](O)c1ccccc1)NS2(=O)=O` [Compound 63, (3S)—N-(3,4-difluorophenyl)-3-[(S)-hydroxy(phenyl)methyl]-7-methyl-1,1-dioxo-3,4-dihydro-2H-pyrrolo[3,4-b][1,4,5]oxathiazepine-6-carboxamide], the 50% effective concentration (EC50) in the data set with HBV (setting [2]) was determined as 0.24 µM. Further, the CC50 at 4 days in data set [1] is above 25 µM.

`Cn1cc2c(c1C(=O)Nc1ccnc(C(F)F)c1)OCC(C)(CO)NS2(=O)=O` (single isomer, unassigned) [Compound 215a, N-[2-(difluoromethyl)-4-pyridyl]-3-(hydroxymethyl)-3,7-dimethyl-1,1-dioxo-2,4-dihydropyrrolo[3,4-b][1,4,5]oxathiazepine-6-carboxamide]: in the data set with HBV, the concentration giving a half-maximal response (EC50) worked out at 0.062 µM. This molecule displayed a CC50 at 4 days in data set [1] above 25 µM.

As for `Cn1cc2c(c1C(=O)Nc1ccc(F)c(F)c1)OC[C@H](Cc1cccnc1)NS2(=O)=O` [Compound 38, (3S)—N-(3,4-difluorophenyl)-7-methyl-1,1-dioxo-3-(3-pyridylmethyl)-3,4-dihydro-2H-pyrrolo[3,4-b][1,4,5]oxathiazepine-6-carboxamide], the 50% effective concentration (EC50) in the data set on HBV (setting [2]) was determined as 0.005 µM. In data set [1], this molecule showed a 50% cytotoxic concentration (CC50) at 4 days above 25 µM.

Consider `Cn1cc2c(c1C(=O)Nc1ccnc(C(F)(F)F)c1)CCC(C(F)(F)F)NS2(=O)=O` (single isomer, unassigned) [Compound 59a, 7-methyl-1,1-dioxo-3-(trifluoromethyl)-N-[2-(trifluoromethyl)-4-pyridyl]-2,3,4,5-tetrahydropyrrolo[3,4-f]thiazepine-6-carboxamide], for which the EC50 in the data set with HBV was above 0.5 µM. Also, the cytotoxic concentration (CC50) at 4 days in data set [1] is above 25 µM.

Regarding `C[C@H](O)[C@H]1COc2c(cn(C)c2C(=O)Nc2ccc(F)c(F)c2)S(=O)(=O)N1` [Compound 35, (3R)—N-(3,4-difluorophenyl)-3-[(1S)-1-hydroxyethyl]-7-methyl-1,1-dioxo-3,4-dihydro-2H-pyrrolo[3,4-b][1,4,5]oxathiazepine-6-carboxamide], the 50% effective concentration (EC50) in the data set on HBV (setting [2]) was found to be 0.012 µM. Moreover, the half-maximal cytotoxic concentration (CC50) at 4 days in data set [1] is above 25 µM.

With `C[C@H](O)[C@H]1C=Cc2c(cn(C)c2C(=O)Nc2ccc(F)c(C(F)F)c2F)S(=O)(=O)N1` [Compound 186, (3R)—N-[3-(difluoromethyl)-2,4-difluoro-phenyl]-3-[(1S)-1-hydroxyethyl]-7-methyl-1,1-dioxo-2,3-dihydropyrrolo[3,4-f]thiazepine-6-carboxamide], the EC50 in the data set with HBV (setting [2]) stood at 0.011 µM. In data set [1], this molecule displayed a CC50 at 4 days above 25 µM.

For the molecule `C=C1c2c(cn(C)c2C(=O)Nc2ccc(F)c(C(F)F)c2)S(=O)(=O)NC1C(C)C` (stereo not shown) [compound 238], the EC50 in the data set on HBV (setting [2]) was 0.077 µM. Further, the CC50 at 4 days in data set [1] was above 25 µM.

As for `COC(=O)C1COc2c(cn(C)c2C(=O)Nc2ccc(F)c(F)c2)S(=O)(=O)N1` (stereo not shown) [compound 243], in the data set with HBV (setting [2]), the concentration giving a half-maximal response (EC50) was above 0.5 µM. In addition, the CC50 at 4 days in data set [1] is above 25 µM.

Turning to `CC(C)[C@@H]1Oc2c(cn(C)c2C(=O)Nc2ccc(F)c(F)c2)S(=O)(=O)N[C@H]1CO` [compound 241], the EC50 in the data set with HBV (setting [2]) was above 0.25 µM. The half-maximal cytotoxic concentration (CC50) at 4 days in data set [1] is above 25 µM.

Consider `Cn1ccc(CC2(C)COc3c(cn(C)c3C(=O)Nc3ccc(F)c(F)c3)S(=O)(=O)N2)n1` (racemic) [Compound 167, N-(3,4-difluorophenyl)-3,7-dimethyl-3-[(1-methylpyrazol-3-yl)methyl]-1,1-dioxo-2,4-dihydropyrrolo[3,4-b][1,4,5]oxathiazepine-6-carboxamide], for which, in the data set with HBV (setting [2]), the concentration for a half-maximal effect (EC50) amounted to 0.041 µM. The molecule further returned a half-maximal cytotoxic concentration (CC50) at 4 days in data set [1] above 25 µM.

The record behind these values is patent US10875876B2, “Cyclized sulfamoylarylamide derivatives and the use thereof as medicaments for the treatment of hepatitis B” (priority 2015, dated 2020).
